Experimental findings from ChEMBL document CHEMBL3526023 (Drug Metab Dispos, 2011) are described below.

The target in data set [1] is T1, UDP-glucuronosyltransferase 2B7 (Homo sapiens, UniProt P16662).
T1 sequence (P16662 whole entry): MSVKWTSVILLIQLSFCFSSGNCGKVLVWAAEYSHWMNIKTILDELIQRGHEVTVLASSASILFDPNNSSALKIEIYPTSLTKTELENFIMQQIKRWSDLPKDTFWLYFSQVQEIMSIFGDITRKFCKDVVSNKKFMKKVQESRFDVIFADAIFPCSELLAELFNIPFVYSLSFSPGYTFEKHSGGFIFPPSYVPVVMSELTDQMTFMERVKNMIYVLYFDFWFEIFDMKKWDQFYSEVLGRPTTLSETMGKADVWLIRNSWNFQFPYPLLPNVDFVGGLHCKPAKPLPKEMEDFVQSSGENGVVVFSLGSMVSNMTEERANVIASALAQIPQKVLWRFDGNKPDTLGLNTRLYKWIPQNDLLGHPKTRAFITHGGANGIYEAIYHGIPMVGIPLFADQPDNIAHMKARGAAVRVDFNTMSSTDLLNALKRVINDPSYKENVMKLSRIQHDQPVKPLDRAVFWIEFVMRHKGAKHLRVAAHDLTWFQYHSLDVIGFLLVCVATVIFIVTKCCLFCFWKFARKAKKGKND
The following applies: microsomes.

In data set [2] the target is T1, UDP-glucuronosyltransferase 2B7. The following applies: microsomes. The source holds these as a separate data set.
For data set [3] the target is unchanged. Put plainly: Drug metabolism in diabetic human kidney microsomes assessed as UGT2B7-mediated zidovudine glucuronide formation per pmol protein by HPLC and LC-MS/MS method. The format is ADME.
The target is the same in data set [4]. Put plainly: Ratio of Vmax to Km in diabetic human liver microsomes assessed as UGT2B7-mediated zidovudine glucuronide formation per pmol protein by HPLC and LC-MS/MS method. The format is ADME. Conditions: […].
The target is the same in data set [5]. Conditions: microsomes. The source holds these as a separate data set.
Data set [6] shares this target. As to the kind of experiment: Drug metabolism in non-diabetic human liver microsomes assessed as UGT2B7-mediated zidovudine glucuronide formation per pmol protein by HPLC and LC-MS/MS method. The format is ADME.
Data set [7] has the same target. Conditions: microsomes. The source holds these as a separate data set.
Data set [8] shares this target. As to the kind of experiment: Drug metabolism in diabetic human liver microsomes assessed as UGT2B7-mediated zidovudine glucuronide formation per pmol protein by HPLC and LC-MS/MS method. The format is ADME.
For data set [9] the target is unchanged. As to the kind of experiment: Drug metabolism in non-diabetic human kidney microsomes assessed as UGT2B7-mediated zidovudine glucuronide formation per pmol protein by HPLC and LC-MS/MS method. The format is ADME.
The target is the same in data set [10]. Put plainly: Drug metabolism in diabetic human liver microsomes assessed as UGT2B7-mediated mycophenolic acid acyl glucuronide formation per pmol protein by HPLC and LC-MS/MS method. The format is ADME.
Data set [11] shares this target. As to the kind of experiment: Ratio of Vmax to Km in non-diabetic human kidney microsomes assessed as UGT2B7-mediated mycophenolic acid phenolic 7-O-glucuronide formation per pmol protein by HPLC and LC-MS/MS method. Format: ADME.
Data set [12] shares this target. Put plainly: Ratio of Vmax to Km in diabetic human kidney microsomes assessed as UGT2B7-mediated mycophenolic acid acyl glucuronide formation per pmol protein by HPLC and LC-MS/MS method. The format is ADME.
Data set [13] shares this target. As to the kind of experiment: Uncompetitive substrate inhibition of UGT2B7 in diabetic human kidney microsomes assessed as reduction in enzyme-mediated mycophenolic acid phenolic 7-O-glucuronide formation by HPLC and LC-MS/MS method. Format: ADME.
Data set [14] has the same target. As to the kind of experiment: Uncompetitive substrate inhibition of UGT2B7 in non-diabetic human liver microsomes assessed as reduction in enzyme-mediated mycophenolic acid acyl glucuronide formation by HPLC and LC-MS/MS method. The format is ADME.
The target is the same in data set [15]. Put plainly: Uncompetitive substrate inhibition of UGT2B7 in non-diabetic human kidney microsomes assessed as reduction in enzyme-mediated mycophenolic acid acyl glucuronide formation by HPLC and LC-MS/MS method. The format is ADME.
The target is the same in data set [16]. As to the kind of experiment: Ratio of Vmax to Km in non-diabetic human liver microsomes assessed as UGT2B7-mediated mycophenolic acid acyl glucuronide formation per pmol protein by HPLC and LC-MS/MS method. Format: ADME.
For data set [17] the target is unchanged. Put plainly: Uncompetitive substrate inhibition of UGT2B7 in non-diabetic human liver microsomes assessed as reduction in enzyme-mediated mycophenolic acid phenolic 7-O-glucuronide formation by HPLC and LC-MS/MS method. The format is ADME.
Data set [18] has the same target. As to the kind of experiment: Ratio of Vmax to Km in non-diabetic human liver microsomes assessed as UGT2B7-mediated mycophenolic acid phenolic 7-O-glucuronide formation per pmol protein by HPLC and LC-MS/MS method. Format: ADME.
For data set [19] the target is unchanged. As to the kind of experiment: Uncompetitive substrate inhibition of UGT2B7 in diabetic human liver microsomes assessed as reduction in enzyme-mediated mycophenolic acid phenolic 7-O-glucuronide formation by HPLC and LC-MS/MS method. The format is ADME.
The target is the same in data set [20]. Put plainly: Ratio of Vmax to Km in non-diabetic human kidney microsomes assessed as UGT2B7-mediated mycophenolic acid acyl glucuronide formation per pmol protein by HPLC and LC-MS/MS method. The format is ADME.
For data set [21] the target is unchanged. As to the kind of experiment: Ratio of Vmax to Km in diabetic human liver microsomes assessed as UGT2B7-mediated mycophenolic acid acyl glucuronide formation per pmol protein by HPLC and LC-MS/MS method. Format: ADME.
Data set [22] shares this target. Put plainly: Drug metabolism in non-diabetic human liver microsomes assessed as UGT2B7-mediated mycophenolic acid phenolic 7-O-glucuronide formation per pmol protein by HPLC and LC-MS/MS method. Format: ADME.
The target is the same in data set [23]. As to the kind of experiment: Drug metabolism in non-diabetic human kidney microsomes assessed as UGT2B7-mediated mycophenolic acid phenolic 7-O-glucuronide formation per pmol protein by HPLC and LC-MS/MS method. Format: ADME.
The target is the same in data set [24]. Put plainly: Drug metabolism in diabetic human kidney microsomes assessed as UGT2B7-mediated mycophenolic acid phenolic 7-O-glucuronide formation per pmol protein by HPLC and LC-MS/MS method. The format is ADME.
The target is the same in data set [25]. As to the kind of experiment: Drug metabolism in non-diabetic human liver microsomes assessed as UGT2B7-mediated mycophenolic acid acyl glucuronide formation per pmol protein by HPLC and LC-MS/MS method. The format is ADME.
Data set [26] shares this target. Put plainly: Drug metabolism in diabetic human liver microsomes assessed as UGT2B7-mediated mycophenolic acid phenolic 7-O-glucuronide formation per pmol protein by HPLC and LC-MS/MS method. The format is ADME.
Data set [27] shares this target. As to the kind of experiment: Uncompetitive substrate inhibition of UGT2B7 in non-diabetic human kidney microsomes assessed as reduction in enzyme-mediated mycophenolic acid phenolic 7-O-glucuronide formation by HPLC and LC-MS/MS method. Format: ADME.
Data set [28] has the same target. As to the kind of experiment: Ratio of Vmax to Km in diabetic human liver microsomes assessed as UGT2B7-mediated mycophenolic acid phenolic 7-O-glucuronide formation per pmol protein by HPLC and LC-MS/MS method. The format is ADME.
The target is the same in data set [29]. As to the kind of experiment: Drug metabolism in diabetic human kidney microsomes assessed as UGT2B7-mediated mycophenolic acid acyl glucuronide formation per pmol protein by HPLC and LC-MS/MS method. The format is ADME.
The target is the same in data set [30]. As to the kind of experiment: Uncompetitive substrate inhibition of UGT2B7 in diabetic human liver microsomes assessed as reduction in enzyme-mediated mycophenolic acid acyl glucuronide formation by HPLC and LC-MS/MS method. Format: ADME.
Data set [31] has the same target. As to the kind of experiment: Ratio of Vmax to Km in diabetic human kidney microsomes assessed as UGT2B7-mediated mycophenolic acid phenolic 7-O-glucuronide formation per pmol protein by HPLC and LC-MS/MS method. The format is ADME.
Data set [32] shares this target. As to the kind of experiment: Uncompetitive substrate inhibition of UGT2B7 in diabetic human kidney microsomes assessed as reduction in enzyme-mediated mycophenolic acid acyl glucuronide formation by HPLC and LC-MS/MS method. Format: ADME.
Substrate in data set [33]: COc1c(C)c2c(c(O)c1C/C=C(\C)CCC(=O)O)C(=O)OC2
As to the kind of experiment: Drug metabolism in diabetic human liver microsomes assessed as UGT2B7-mediated mycophenolic acid phenolic 7-O-glucuronide formation by HPLC and LC-MS/MS method. Format: ADME.

Substrate in data set [34]: COc1c(C)c2c(c(O)c1C/C=C(\C)CCC(=O)O)C(=O)OC2
As to the kind of experiment: Drug metabolism in diabetic human liver microsomes assessed as UGT2B7-mediated mycophenolic acid acyl glucuronide formation by HPLC and LC-MS/MS method. Format: ADME.

Substrate in data set [35]: COc1c(C)c2c(c(O)c1C/C=C(\C)CCC(=O)O)C(=O)OC2
Put plainly: Drug metabolism in non-diabetic human liver microsomes assessed as UGT2B7-mediated mycophenolic acid acyl glucuronide formation by HPLC and LC-MS/MS method. The format is ADME.

Substrate in data set [36]: COc1c(C)c2c(c(O)c1C/C=C(\C)CCC(=O)O)C(=O)OC2
As to the kind of experiment: Drug metabolism in non-diabetic human kidney microsomes assessed as UGT2B7-mediated mycophenolic acid acyl glucuronide formation by HPLC and LC-MS/MS method. Format: ADME.

Substrate in data set [37]: COc1c(C)c2c(c(O)c1C/C=C(\C)CCC(=O)O)C(=O)OC2
As to the kind of experiment: Drug metabolism in diabetic human kidney microsomes assessed as UGT2B7-mediated mycophenolic acid acyl glucuronide formation by HPLC and LC-MS/MS method. Format: ADME.

Substrate in data set [38]: COc1c(C)c2c(c(O)c1C/C=C(\C)CCC(=O)O)C(=O)OC2
As to the kind of experiment: Drug metabolism in non-diabetic human kidney microsomes assessed as UGT2B7-mediated mycophenolic acid phenolic 7-O-glucuronide formation by HPLC and LC-MS/MS method. The format is ADME.

Substrate in data set [39]: COc1c(C)c2c(c(O)c1C/C=C(\C)CCC(=O)O)C(=O)OC2
Put plainly: Drug metabolism in diabetic human kidney microsomes assessed as UGT2B7-mediated mycophenolic acid phenolic 7-O-glucuronide formation by HPLC and LC-MS/MS method. The format is ADME.

Substrate in data set [40]: COc1c(C)c2c(c(O)c1C/C=C(\C)CCC(=O)O)C(=O)OC2
Put plainly: Drug metabolism in non-diabetic human liver microsomes assessed as UGT2B7-mediated mycophenolic acid phenolic 7-O-glucuronide formation by HPLC and LC-MS/MS method. The format is ADME.

As to `Cc1cn([C@H]2C[C@H](N=[N+]=[N-])[C@@H](CO)O2)c(=O)[nH]c1=O` [ZIDOVUDINE], the Km was determined as 330 µM in data set [1], 519 µM in [2], 307 µM in data set [5] and 519 µM in data set [7]. For the same molecule, the Vmax is reported as 6.52 pmol/min in data set [3], 1214 pmol/min in data set [6], 274 pmol/min in data set [8] and 20.5 pmol/min in data set [9]. In addition, the Vmax/Km in data set [4] turned out to be 0.87 nL/min.

Regarding `COc1c(C)c2c(c(O)c1C/C=C(\C)CCC(=O)O)C(=O)OC2` [MYCOPHENOLIC ACID], the Vmax in [10] was 0.76 pmol/min; in [22], 10.6 pmol/min; in data set [23] it was 26.4 pmol/min; in data set [24], 38.8 pmol/min; in [25], 2.43 pmol/min; in data set [26], 15.7 pmol/min. Also, the Vmax in [29] is on record as 0.43 pmol/min. Besides, the Vmax/Km in data set [11] came out at 27.6 nL/min; in data set [12], 0.12 nL/min; in data set [16] it was 4.08 nL/min; in data set [18] it was 22.9 nL/min; in data set [20] it was 0.41 nL/min; in data set [21], 1.51 nL/min. In addition, the Vmax/Km is 31.3 nL/min in [28] and 34.1 nL/min in data set [31]. Also, the Ki turned out to be 1500 nM in data set [13]; 2000 nM in [14]; 2000 nM in data set [15]; 1500 nM in data set [17]; 1500 nM in data set [19]; 1500 nM in data set [27]. The Ki in data set [30] and in data set [32] was 2000 nM throughout.

B1: UDP-glucuronosyltransferase 2B7 (Homo sapiens) (protein)
chain: T1 sequence (P16662 whole entry)
As to B1, the Km in data set [33] turned out to be 482 µM; in [34], 502 µM; in [35], 601 µM; in [36], 3010 µM; in [37] it was 3430 µM; in data set [38] it was 1010 µM. Besides, the Km in data set [39] turned out to be 1160 µM; in data set [40], 454 µM.
